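Method: 48-hour compound exposure of cells in 96-well plates, five concentrations, linear interpolation of endpoints. GI50 = concentration required for 50% inhibition of growth. TGI marks complete inhibition of growth.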
Key:
Test in all cases: growth of human tumour cells (NCI), 48 h
[1] = system: 786-0 renal
[2] = system: A498 renal
[3] = system: A549 NSCLC
[4] = system: ACHN renal
[5] = system: BT-549 breast
[6] = system: CAKI-1 renal
[7] = system: CCRF-CEM leukemia
[8] = system: COLO 205 colon
[9] = system: DU-145 prostate
[10] = system: EKVX NSCLC
[11] = system: HCC-2998 colon
[12] = system: HCT-116 colon
[13] = system: HCT-15 colon
[14] = system: HL-60(TB) leukemia
[15] = system: HOP-62 NSCLC
[16] = system: HOP-92 NSCLC
[17] = system: HS 578T breast
[18] = system: HT29 colon
[19] = system: IGROV1 ovarian
[20] = system: K-562 leukemia
[21] = system: KM12 colon
[22] = system: LOX IMVI melanoma
[23] = system: M14 melanoma
[24] = system: MALME-3M melanoma
[25] = system: MCF7 breast
[26] = system: MDA-MB-231 breast
[27] = system: MDA-MB-435
[28] = system: MOLT-4 leukemia
[29] = system: NCI-H226 lung
[30] = system: NCI-H23 lung
[31] = system: NCI-H460 lung
[32] = system: NCI-H522 lung
[33] = system: NCI/ADR-RES ovarian
[34] = system: OVCAR-3 ovarian
[35] = system: OVCAR-4 ovarian
[36] = system: OVCAR-5 ovarian
[37] = system: OVCAR-8 ovarian
[38] = system: PC-3 prostate
[39] = system: RPMI-8226 leukemia
[40] = system: RXF 393 renal
[41] = system: SF-268 CNS
[42] = system: SF-295 CNS
[43] = system: SF-539 CNS
[44] = system: SK-MEL-2 melanoma
[45] = system: SK-MEL-28 melanoma
[46] = system: SK-MEL-5 melanoma
[47] = system: SK-OV-3 ovarian
[48] = system: SN12C renal
[49] = system: SNB-19 CNS
[50] = system: SNB-75 CNS
[51] = system: SR leukemia
[52] = system: SW-620 colon
[53] = system: T-47D breast
[54] = system: TK-10 renal
[55] = system: U251 CNS
[56] = system: UACC-257 melanoma
[57] = system: UACC-62 melanoma
[58] = system: UO-31 renal
[59] = system: MDA-N

What does the source list for `O=C(/C=C/c1cccnc1)/C=C/c1cccnc1`?
GI50 [1]: 2.1 µM; TGI [1]: 6.03 µM; GI50 [2]: 1.94 µM; TGI [2]: 4.66 µM; GI50 [3]: 2.32 µM; TGI [3]: 6.23 µM; GI50 [4]: 2.19 µM; TGI [4]: 5.48 µM; GI50 [5]: 1.73 µM; TGI [5]: 4.62 µM; GI50 [6]: 4.28 µM; TGI [6]: 26.6 µM; GI50 [7]: 0.199 µM; TGI [7]: 0.821 µM; GI50 [8]: 1.35 µM; TGI [8]: 2.77 µM; GI50 [9]: 2.57 µM; TGI [9]: 6.45 µM; GI50 [10]: 4.74 µM; TGI [10]: 21.6 µM; GI50 [11]: 0.846 µM; TGI [11]: 2.19 µM; GI50 [12]: 0.164 µM; TGI [12]: 0.321 µM; GI50 [13]: 0.523 µM; TGI [13]: 1.98 µM; GI50 [14]: 0.707 µM; GI50 [15]: 6.27 µM; TGI [15]: 16.4 µM; GI50 [16]: 2.33 µM; TGI [16]: 5.89 µM; GI50 [17]: 3.44 µM; TGI [17]: 17.3 µM; GI50 [18]: 1.3 µM; TGI [18]: 3.13 µM; GI50 [19]: 0.463 µM; TGI [19]: 1.82 µM; GI50 [20]: 0.383 µM; GI50 [21]: 0.428 µM; TGI [21]: 1.58 µM; GI50 [22]: 1.13 µM; TGI [22]: 2.42 µM; GI50 [23]: 1.84 µM; TGI [23]: 4.62 µM; GI50 [24]: 1.97 µM; TGI [24]: 5.31 µM; GI50 [25]: 0.379 µM; TGI [25]: 1.84 µM; GI50 [26]: 2.05 µM; TGI [26]: 5.8 µM; GI50 [27]: 1.78 µM; TGI [27]: 4.84 µM; GI50 [28]: 0.31 µM; GI50 [29]: 5.1 µM; TGI [29]: 15.7 µM; GI50 [30]: 2.33 µM; TGI [30]: 6.7 µM; GI50 [31]: 2.5 µM; TGI [31]: 7.29 µM; GI50 [32]: 1.77 µM; TGI [32]: 4.69 µM; GI50 [33]: 4.08 µM; TGI [33]: 30.6 µM; GI50 [34]: 1.07 µM; TGI [34]: 2.33 µM; GI50 [35]: 2 µM; TGI [35]: 4.52 µM; GI50 [36]: 2.17 µM; TGI [36]: 5.03 µM; GI50 [37]: 3.56 µM; TGI [37]: 12.8 µM; GI50 [38]: 0.558 µM; TGI [38]: 3.01 µM; GI50 [39]: 0.0732 µM; TGI [39]: 0.252 µM; GI50 [40]: 0.608 µM; TGI [40]: 1.53 µM; GI50 [41]: 2.73 µM; TGI [41]: 7.77 µM; GI50 [42]: 3.73 µM; TGI [42]: 13.1 µM; GI50 [43]: 1.75 µM; TGI [43]: 3.62 µM; GI50 [44]: 1.43 µM; TGI [44]: 3.58 µM; GI50 [45]: 1.95 µM; TGI [45]: 4.02 µM; GI50 [46]: 2.06 µM; TGI [46]: 4.7 µM; GI50 [47]: 2.74 µM; TGI [47]: 6.78 µM; GI50 [48]: 2.99 µM; TGI [48]: 12.7 µM; GI50 [49]: 3.64 µM; TGI [49]: 11.6 µM; GI50 [50]: 1.8 µM; TGI [50]: 7.33 µM; GI50 [51]: 0.196 µM; TGI [51]: > 100 µM; GI50 [52]: 0.724 µM; TGI [52]: 2.48 µM; GI50 [53]: 2.14 µM; TGI [53]: 6.87 µM; GI50 [54]: 3.11 µM; TGI [54]: 10.4 µM; GI50 [55]: 0.547 µM; TGI [55]: 1.78 µM; GI50 [56]: 7.63 µM; TGI [56]: 20.3 µM; GI50 [57]: 1.91 µM; TGI [57]: 5.36 µM; GI50 [58]: 0.562 µM; TGI [58]: 1.89 µM

How did the TGI [2] turn out when `C1=C(N2CCOCC2)/C(=C2\SC(=Nc3ccccc3)C(=Nc3ccccc3)N2c2ccccc2)CC1` was run?
Its TGI is > 100 µM.

And the TGI [6]?
Its TGI is > 100 µM.

What about the TGI [7] of the same molecule?
Its TGI is > 100 µM.

And the TGI [8]?
The TGI was > 100 µM.

And the TGI [9]?
Its TGI is > 100 µM.

What about the TGI [12] of the same molecule?
The TGI was > 100 µM.

What about the TGI [13] of the same molecule?
Its TGI is > 100 µM.

What about the TGI [15] of the same molecule?
The TGI was > 100 µM.

What about the TGI [16] of the same molecule?
Its TGI is > 100 µM.

And the TGI [17]?
Its TGI is > 100 µM.

What about the TGI [18] of the same molecule?
The TGI was > 100 µM.

And the TGI [19]?
Its TGI is > 100 µM.

What about the TGI [20] of the same molecule?
Its TGI is > 100 µM.

And the TGI [21]?
Its TGI is > 100 µM.

And the TGI [23]?
Its TGI is > 100 µM.

And the TGI [24]?
Its TGI is > 100 µM.

What about the TGI [26] of the same molecule?
Its TGI is > 100 µM.

What about the TGI [27] of the same molecule?
Its TGI is > 100 µM.

What about the TGI [59] of the same molecule?
Its TGI is > 100 µM.

What about the TGI [28] of the same molecule?
The TGI was > 100 µM.

And the TGI [30]?
The TGI was > 100 µM.

And the TGI [31]?
The TGI was > 100 µM.

And the TGI [32]?
Its TGI is > 100 µM.

And the TGI [33]?
The TGI was > 100 µM.

And the TGI [34]?
Its TGI is > 100 µM.

And the TGI [37]?
Its TGI is > 100 µM.

What about the TGI [38] of the same molecule?
Its TGI is > 100 µM.

And the TGI [39]?
Its TGI is > 100 µM.

And the TGI [42]?
The TGI was > 100 µM.

And the TGI [44]?
Its TGI is > 100 µM.

What about the TGI [45] of the same molecule?
The TGI was > 100 µM.

What about the TGI [46] of the same molecule?
The TGI was > 100 µM.

What about the TGI [47] of the same molecule?
Its TGI is 69 µM.

What about the TGI [48] of the same molecule?
The TGI was > 100 µM.

And the TGI [50]?
Its TGI is 65.4 µM.

What about the TGI [51] of the same molecule?
The TGI was > 100 µM.

And the TGI [53]?
The TGI was > 100 µM.

What about the TGI [55] of the same molecule?
Its TGI is > 100 µM.

And the TGI [57]?
The TGI was 48.9 µM.

— PubChem BioAssay (NCI)
